In patent publication US8536354B2, “Steroidal ligands and their use in gene switch modulation” (Intrexon Corporation, priority 2008, dated 2013):
Read-outs that look alike come from different tables or passages of the source.

Assays:
[1] = target: T1, AmaEcR (GAL4-EcR DEF with VP16-RXR-USP chimera) (Amblyomma americanum, UniProt O44338); test: Two-hybrid gene switch assay, luciferase reporter, AmaEcR, mouse NIH3T3 cells
T1 sequence (O44338 255-570): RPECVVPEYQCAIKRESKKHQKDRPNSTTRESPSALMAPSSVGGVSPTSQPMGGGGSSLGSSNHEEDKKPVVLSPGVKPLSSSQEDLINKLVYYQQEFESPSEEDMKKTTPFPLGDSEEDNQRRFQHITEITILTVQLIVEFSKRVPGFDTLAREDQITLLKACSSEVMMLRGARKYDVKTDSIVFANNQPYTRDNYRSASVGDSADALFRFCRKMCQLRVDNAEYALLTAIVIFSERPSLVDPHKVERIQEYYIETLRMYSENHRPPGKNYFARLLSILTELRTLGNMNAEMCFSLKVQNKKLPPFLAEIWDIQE
T1 sequence (P28702 1-533 partner): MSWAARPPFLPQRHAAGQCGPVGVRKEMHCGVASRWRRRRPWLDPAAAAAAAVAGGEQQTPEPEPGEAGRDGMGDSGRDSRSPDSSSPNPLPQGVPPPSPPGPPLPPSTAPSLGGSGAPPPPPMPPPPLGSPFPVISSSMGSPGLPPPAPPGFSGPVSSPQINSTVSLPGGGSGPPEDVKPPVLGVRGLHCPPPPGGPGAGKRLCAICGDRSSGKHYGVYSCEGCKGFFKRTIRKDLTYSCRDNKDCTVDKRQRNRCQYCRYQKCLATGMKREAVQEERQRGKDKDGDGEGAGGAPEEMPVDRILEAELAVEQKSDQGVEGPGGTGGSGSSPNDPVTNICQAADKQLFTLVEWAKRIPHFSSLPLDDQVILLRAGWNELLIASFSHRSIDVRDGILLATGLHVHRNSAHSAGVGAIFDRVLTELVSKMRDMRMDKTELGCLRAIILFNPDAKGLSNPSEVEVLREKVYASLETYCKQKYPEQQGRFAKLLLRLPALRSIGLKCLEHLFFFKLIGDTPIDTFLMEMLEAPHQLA

[2] = target: wild-type Aedes aegypti EcR (AaEcR; GAL4-EcR DEF with VP16-RXR-USP chimera) (Aedes aegypti, UniProt P49880); test: Two-hybrid gene switch assay, luciferase reporter, wild-type AaEcR, mouse NIH3T3 cells; type: cell-based
Sequence of wild-type Aedes aegypti EcR (AaEcR; GAL4-EcR DEF with VP16-RXR-USP chimera) (P49880 with tags, fused parts or gaps limits assumed, change not shown): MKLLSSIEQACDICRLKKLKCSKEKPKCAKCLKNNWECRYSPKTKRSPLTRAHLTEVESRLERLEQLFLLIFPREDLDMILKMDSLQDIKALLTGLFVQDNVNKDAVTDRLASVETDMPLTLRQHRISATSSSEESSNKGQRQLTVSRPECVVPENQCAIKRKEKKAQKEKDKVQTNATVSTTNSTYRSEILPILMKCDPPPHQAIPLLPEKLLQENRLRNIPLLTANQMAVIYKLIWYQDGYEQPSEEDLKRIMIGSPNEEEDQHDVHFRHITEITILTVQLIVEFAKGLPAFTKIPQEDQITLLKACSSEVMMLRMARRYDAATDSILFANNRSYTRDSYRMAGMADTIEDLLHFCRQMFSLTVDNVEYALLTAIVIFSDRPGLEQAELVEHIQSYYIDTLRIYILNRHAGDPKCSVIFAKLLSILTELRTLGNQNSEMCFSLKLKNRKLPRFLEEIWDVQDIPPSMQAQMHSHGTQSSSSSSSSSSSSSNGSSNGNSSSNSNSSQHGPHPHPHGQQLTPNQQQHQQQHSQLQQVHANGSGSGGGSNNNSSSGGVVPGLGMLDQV

[3] = target: wild-type Drosophila melanogaster EcR (DmEcR; GAL4-EcR DEF with VP16-RXR-USP chimera) (Drosophila melanogaster, UniProt P34021); test: Two-hybrid gene switch assay, luciferase reporter, wild-type DmEcR, mouse NIH3T3 cells; type: cell-based
Sequence of wild-type Drosophila melanogaster EcR (DmEcR; GAL4-EcR DEF with VP16-RXR-USP chimera) (P34021 with tags, fused parts or gaps limits assumed): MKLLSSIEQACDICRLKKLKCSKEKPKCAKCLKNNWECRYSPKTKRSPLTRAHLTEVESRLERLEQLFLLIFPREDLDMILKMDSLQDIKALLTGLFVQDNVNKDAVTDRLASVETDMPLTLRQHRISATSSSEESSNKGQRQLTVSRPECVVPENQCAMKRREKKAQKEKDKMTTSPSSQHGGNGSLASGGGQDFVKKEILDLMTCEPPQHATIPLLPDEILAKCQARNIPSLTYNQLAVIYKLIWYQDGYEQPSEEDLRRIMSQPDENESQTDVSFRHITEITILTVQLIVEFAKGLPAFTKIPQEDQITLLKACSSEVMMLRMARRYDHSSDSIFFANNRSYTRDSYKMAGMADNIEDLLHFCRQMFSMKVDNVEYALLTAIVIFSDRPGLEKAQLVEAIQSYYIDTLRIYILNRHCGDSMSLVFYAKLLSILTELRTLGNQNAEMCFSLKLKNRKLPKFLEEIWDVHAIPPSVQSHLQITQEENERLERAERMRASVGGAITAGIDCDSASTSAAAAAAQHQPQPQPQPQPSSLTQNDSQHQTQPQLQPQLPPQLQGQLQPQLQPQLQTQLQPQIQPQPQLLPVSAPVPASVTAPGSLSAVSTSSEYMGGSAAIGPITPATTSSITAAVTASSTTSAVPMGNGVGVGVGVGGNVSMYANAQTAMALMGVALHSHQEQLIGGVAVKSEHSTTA

[4] = system: NcEcR (GAL4-EcR DEF with VP16-RXR partner); test: Two-hybrid gene switch assay, luciferase reporter, NcEcR, mouse NIH3T3 cells
[5] = target: BmEcR (GAL4-EcR DEF with VP16-RXR-USP chimera) (Bombyx mori, UniProt P49881); test: Two-hybrid gene switch assay, luciferase reporter, BmEcR, mouse NIH3T3 cells; type: cell-based
Sequence of BmEcR (GAL4-EcR DEF with VP16-RXR-USP chimera) (P49881 other isoform, or with tags, fused parts or gaps, change not shown): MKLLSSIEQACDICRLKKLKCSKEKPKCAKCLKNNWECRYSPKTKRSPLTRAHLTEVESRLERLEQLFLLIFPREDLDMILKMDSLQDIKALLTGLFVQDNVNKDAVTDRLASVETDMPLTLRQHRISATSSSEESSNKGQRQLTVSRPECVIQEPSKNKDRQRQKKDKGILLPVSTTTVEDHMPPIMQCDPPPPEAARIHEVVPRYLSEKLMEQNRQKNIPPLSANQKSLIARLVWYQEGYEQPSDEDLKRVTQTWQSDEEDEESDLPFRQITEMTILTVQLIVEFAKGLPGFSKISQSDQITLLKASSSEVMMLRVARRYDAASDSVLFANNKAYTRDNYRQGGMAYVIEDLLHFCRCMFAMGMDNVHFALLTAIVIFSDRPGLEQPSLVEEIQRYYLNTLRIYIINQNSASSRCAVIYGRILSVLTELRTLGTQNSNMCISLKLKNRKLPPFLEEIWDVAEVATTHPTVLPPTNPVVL

[6] = EC50, FIG. 14A/14B, GAL4-EcR(DEF) with VP16-RXR-USP chimera
[7] = EC50, FIG. 13A/13B, BmEcR, GAL4-EcR(DEF) with VP16-RXR-USP chimera
[8] = FIG. 14A/14B, GAL4-EcR(DEF) with VP16-RXR-USP chimera, read-out: EC50
[9] = EC50, FIG. 16, GAL4-EcR (DEF) / VP16-RXR-USP chimera

Compound	EC50 [1, 6]	EC50 [2, 6]	EC50 [3, 6]	EC50 ([4]; FIG. 14A/14B, GAL4-EcR(DEF))	EC50 [5, 7]	EC50 [2, 8]	EC50 [5]	EC50 ([5]; read-out: EC50)	EC50 [1, 9]	EC50 [2, 9]	EC50 [3, 9]	EC50 ([4]; FIG. 16, GAL4-EcR (DEF))	EC50 ([5]; EC50, FIG. 15, BmEcR, GAL4-EcR (DEF) / VP16-RXR-USP chimera)
CC(C)=CC[C@@H](O)[C@](C)(O)[C@H]1CC[C@@]2(O)C3=CC(=O)[C@@H]4C[C@@H](O)[C@@H](O)C[C@]4(C)[C@H]3CC[C@]12C [stachysterone C]	~0.1 µM	0.044 µM	0.385 µM	0.013 µM	~5 µM								
CC(C)(O)CC[C@@H](O)[C@](C)(O)[C@H]1CC[C@@]2(O)C3=CC(=O)[C@@H]4C[C@@H](O)[C@@H](O)C[C@]4(C)C3=CC[C@]12C [Compound 25-hydroxydacryhainansterone]	~3.3 µM		> 33 µM	1.26 µM		~5 µM	> 33 µM						
CCCCCCCCCC(=O)OC1CC2(C)C(C(C)(O)C(O)CCC(C)(C)O)CCC2(O)C2=CC(=O)C3CC(O)C(O)CC3(C)C21 (stereo not shown) [turkesterone-11a-decanoate]	> 33 µM	> 33 µM	> 33 µM	> 33 µM	> 33 µM								
CCCCCC(=O)OC1CC2(C)C(C(C)(O)C(O)CCC(C)(C)O)CCC2(O)C2=CC(=O)C3CC(O)C(O)CC3(C)C21 (stereo not shown) [turkesterone-11 a -hexanoate]	~10 µM	~12 µM	> 33 µM	~7 µM	> 33 µM								
CC(CC(O)C(C)(O)C1CCC2(O)C3=CC(=O)C4CC(O)C(O)CC4(C)C3CCC12C)C(C)(C)O (stereo not shown) [makisterone A]	1.4 µM		~20 µM	0.117 µM		3.33 µM		> 33 µM					
CC(C)(O)C(CCC(C)(O)C1CCC2(O)C3=CC(=O)C4CC(O)C(O)CC4(C)C3CCC12C)OC(=O)c1ccc[nH]1 (stereo not shown) [canescensterone]	~0.3 µM		~0.5 µM	~0.33 µM		~0.2 µM	> 10 µM						
C[C@@H]1C(=O)O[C@H](C)[C@H]1C[C@@H](O)[C@](C)(O)[C@H]1CC[C@@]2(O)C3=CC(=O)[C@@H]4C[C@@H](O)[C@@H](O)C[C@]4(C)[C@H]3CC[C@]12C [cyasterone]	~0.3 µM		> 33 µM	1.82 µM		3 µM							
CC(C)(O)CC[C@@H](O)[C@](C)(O)[C@H]1CC[C@@]2(O)C3=CC(=O)[C@]4(O)C[C@@H](O)[C@@H](O)C[C@]4(C)[C@H]3CC[C@]12C [polypodine B]	~3.3 µM	0.173 µM	~2 µM	~0.1 µM	~8 µM				~0.3 µM	0.05 µM	2.54 µM	0.05 µM	~9 µM
CC(C)(O)CC[C@@H](O)[C@](C)(O)[C@H]1CC[C@@]2(O)C3=C[C@@H](O)[C@@H]4C[C@@H](O)[C@@H](O)C[C@]4(C)[C@H]3CC[C@]12C [Compound 6b-hydroxy-20-hydroxyecdysone]	~3.3 µM		~20 µM	1.7 µM		~6 µM	> 33 µM						
CC(C)(O)CC[C@@H](OC(=O)c1ccc[nH]1)[C@](C)(O)[C@H]1CC[C@@]2(O)C3=CC(=O)[C@@H]4C[C@@H](O)[C@@H](O)C[C@]4(C)[C@H]3CC[C@]12C	~5 µM		~20 µM	~5 µM		~10 µM	> 33 µM						
CC(C)(O)CC[C@@H](O)[C@](C)(O)[C@H]1CC[C@@]2(O)C3=CC(=O)[C@@H]4C[C@@H](O)[C@@H](O)C[C@]4(C)[C@H]3[C@H](O)C[C@]12C [turkesterone]	~10 µM	3.37 µM	~15 µM	1.35 µM	> 33 µM								
CC(C)(O)CC[C@@H](O)[C@](C)(O)[C@H]1CC[C@@]2(O)C3=CC(=O)[C@@H]4C[C@H]5OC(C)(C)O[C@H]5C[C@]4(C)[C@H]3CC[C@]12C [20-hydroxyecdysone-2,3-acetonide]	~7 µM		> 33 µM	2.9 µM		~15 µM	> 33 µM						
